Where two headings read alike, the source gives them in different places.
Assays:
Type in all cases: cell-based
[1] = system: Staphylococcus aureus (ATCC 25923); assay: MIC broth microdilution (CLSI), Luria Broth; conditions: for fold more potent than compound 1: from MIC
In short: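 Two-fold serial dilutions (0.10–100 μM, eleven points) in Luria Broth, each well inoculated with 10^5 cells from log-phase culture (OD600 0.5), per CLSI broth microdilution. DMSO vehicle up to 1% v/v as negative control; kanamycin positive control for the staphylococci.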

[2] = system: Acinetobacter baumannii (ATCC 19606) biofilm; assay: Biofilm inhibition, Mueller-Hinton broth, crystal violet; conditions: A. baumannii ATCC 19606; for inhibition at 100 µM: Acinetobacter baumannii, ATCC19606, read-out: % Biofilm Inhibition at 100 μM
Description: (§1) Biofilm Inhibition Protocol for A. baumannii (ATCC 19606): In a 96-well plate, ten two-fold serial dilutions of each compound tested were made from the highest concentration tested (100 μM) in a final volume of 100 μL in Mueller-Hinton broth (one column served as a blank). Each well was inoculated with ˜7×10^6 colony forming units per milliliter (corresponding to an OD600 of 0.01 prepared directly from an overnight culture). A lid was placed on the 96-well plate which was wrapped in suran wrap, placed in a humidifying chamber and incubated under static conditions at 37° C. for 24 hours. Following incubation, the media and planktonic bacteria were then removed from 96-well plates and the wells were then washed with water. The bacterial biofilms within the microtiter wells were stained with 200 μL of an aqueous 0.1% crystal violet solution that was allowed to stand for 10-20 minutes. The crystal violet stain was then removed, the wells were rinsed with water and dried. The crystal violet stain that remained on the inside of the wells (i.e., stained bacterial biofilm) on the inside of the wells was solubilized by the addition of 200 μL ethanol and absorbance was read at OD540 using a spectrophotometer. NOTE: The concentration range tested for each compound was 0.2-100 μM. Single data points for all compounds and DMSO controls were tested in two replicate rows in 96-well plates and corresponding absorbance readings were averaged for the quantification of planktonic growth and biofilm formation. Reported percent biofilm inhibition was determined by the comparison of compound treated wells (the average of the two replicate wells) versus vehicle control wells without compound following background subtraction (i.e., an empty, untreated well) and reported from 2 to 4 independent overnight cultures. DMSO was serially diluted at the same concentration as test compounds with a top concentration of 1% v/v.
(§2) The bromophenazines were also evaluated against the Gram-negative bacterium Acinetobacter baumannii in order to identify biofilm modulating small molecules against this emerging pathogen. Acinetobacter baumannii is notorious for its ability to persist as bacterial biofilms on hospital surfaces, giving rise to many multidrug-resistant nosocomial infections. Clinical isolates of A. baumannii have been identified that are resistant to every class of antibiotic clinically used. The bromophenazines were evaluated against Acinetobacter baumannii ATCC 19606 in biofilm inhibition assays. Bromophenazines were allowed to incubate in 96-well plates with Acinetobacter baumannii (˜7×10^6 CFUmL^−1 by adjusting an overnight culture to an OD600˜0.01) for 24 hours at 37° C. using Mueller-Hinton broth followed by spectrophometer readings of each plate to evaluate planktonic growth (OD600) and biofilm formation (OD540 after crystal violet stain of biofilms inside microtiter wells). […] This biofilm inhibition with activation of planktonic growth activity was dose-dependent with bromophenazine 17a (see FIG. 20).

[3] = system: Acinetobacter baumannii (ATCC 19606); assay: Planktonic growth (OD600) in biofilm inhibition assay; conditions: for inhibition of growth at 100 µM: Acinetobacter baumannii, ATCC19606, 24 h, A. baumannii ATCC 19606, * = no growth inhibition at 200 μM, read-out: % Growth Inhibition at 100 μM
Description: as §1, with “Each” for “Biofilm Inhibition Protocol for A. baumannii (ATCC 19606): In a 96-well plate, ten two-fold serial dilutions of each compound tested were made from the highest concentration tested (100 μM) in a final volume of 100 μL in Mueller-Hinton broth (one column served as a blank). Each”, “NOTE: The concentration range tested for each compound was 0.2-100 μM.” left out
as §2

[4] = Staphylococcus aureus, ATCC25923, Table 2, S. aureus ATCC 25923, Luria Broth, read-out: MIC
[5] = Table 2, S. aureus ATCC 25923, Luria Broth, read-out: MIC
[6] = Staphylococcus aureus, ATCC25923, Table 1, ATCC 25923, range tested 0.10 to 100 μM, read-out: Staphylococcus aureus MIC
[7] = Staphylococcus aureus, ATCC25923, Table 1, ATCC 25923, read-out: Staphylococcus aureus MIC

SMILES: CCC(=O)Oc1c(Br)cc(Br)c2nc3ccccc3nc12 [Compound 4a]
- MIC [1, 4]: 0.78 to 1.56 µM
- MIC [1, 5]: 1.56 µM
- Phenotype [2]: antibacterial
- inhibition at 100 µM [2]: 99 ± 1%
- inhibition of growth at 100 µM ([3]; 100 μM): 82 ± 1%

SMILES: O=C(CCCC(=O)Oc1c(Br)cc(Br)c2nc3ccccc3nc12)Oc1c(Br)cc(Br)c2nc3ccccc3nc12 [Compound 5a]
- MIC [1, 4]: > 100 µM
- inhibition at 100 µM [2]: 59 ± 11%
- inhibition of growth at 100 µM ([3]; 100 μM): -1 ± 6%

SMILES: O=C(OCCc1ccccc1)Oc1c(Br)cc(Br)c2nc3ccccc3nc12 [Compound 8a]
- MIC [1, 4]: 0.78 to 1.56 µM
- MIC [1, 5]: 1.56 µM
- Phenotype [2]: antibacterial
- inhibition at 100 µM [2]: 97 ± 2%
- inhibition of growth at 100 µM ([3]; 100 μM): 76 ± 10%

SMILES: Oc1c(Br)cc(Br)c2nc3ccccc3nc12 [Compound 11, 2,4-Dibromophenazin-1-ol]
- MIC [1, 6]: 1.56 µM
- MIC [1, 7]: 0.55 µg/mL
- MIC [1, 4]: 1.56 µM
- fold more potent than compound 1 ([1]; Staphylococcus aureus): 32 fold
- Phenotype [2]: antibacterial
- inhibition at 100 µM [2]: 98 ± 1%
- inhibition of growth at 100 µM ([3]; 100 μM): 86 ± 3%

SMILES: O=C(Oc1c(Br)cc(Br)c2nc3ccccc3nc12)c1ccc(Br)cc1 [Compound 12a]
- MIC [1, 4]: > 100 µM
- inhibition at 100 µM [2]: 34 ± 4%
- inhibition of growth at 100 µM ([3]; 100 μM): 3 ± 3%

SMILES: O=C(Oc1c(Br)cc(Br)c2nc3ccccc3nc12)c1ccc(Cl)cc1 [Compound 14a]
- MIC [1, 4]: > 100 µM
- inhibition at 100 µM [2]: 25 ± 3%
- inhibition of growth at 100 µM ([3]; 100 μM): 2 ± 3%

SMILES: O=C(Oc1c(Br)cc(Br)c2nc3ccccc3nc12)c1cccc([N+](=O)[O-])c1 [Compound 15a]
- MIC [1, 4]: 0.78 to 1.56 µM
- MIC [1, 5]: 1.56 µM
- inhibition at 100 µM [2]: 25 ± 6%
- inhibition of growth at 100 µM ([3]; 100 μM): 3 ± 4%

SMILES: Cc1ccc(C(=O)Oc2c(Br)cc(Br)c3nc4ccccc4nc23)cc1 [Compound 18a]
- MIC [1, 4]: > 100 µM
- Phenotype [2]: inactive
- inhibition at 100 µM [2]: 1 ± 5%
- inhibition of growth at 100 µM ([3]; 100 μM): -6 ± 6%

SMILES: CC(=O)Oc1c(Br)cc(Br)c2nc3ccccc3nc12 [Compound 21, 2,4-Dibromophenazin-1-yl acetate]
- MIC [1, 6]: 0.78 to 1.56 µM
- MIC [1, 7]: 0.31 to 0.62 µg/mL
- MIC [1, 4]: 0.78 to 1.56 µM
- fold more potent than compound 1 ([1]; Staphylococcus aureus): 32 fold
- Phenotype [2]: antibacterial
- inhibition at 100 µM [2]: 98 ± 1%
- inhibition of growth at 100 µM ([3]; 100 μM): 83 ± 2%

SMILES: O=C(Oc1c(Br)cc(Br)c2nc3ccccc3nc12)c1ccccc1 [Compound 23, 2,4-Dibromophenazin-1-yl benzoate]
- MIC [1, 6]: 1.56 µM
- MIC [1, 7]: 0.72 µg/mL
- MIC [1, 4]: 1.56 µM
- inhibition at 100 µM [2]: 51 ± 6%
- increase in planktonic growth ([3]; 100 μM, OD600): ~15%
- planktonic growth inhibition at 200 μM ([3]; 200 μM): did not inhibit planktonic growth
- inhibition of growth at 100 µM ([3]; 100 μM): -13 ± 7%

SMILES: O=C(Oc1c(Br)cc(Br)c2nc3ccccc3nc12)c1ccco1 [Compound 23a]
- MIC [1, 4]: 0.78 to 1.56 µM
- MIC [1, 5]: 0.78 µM
- Phenotype [2]: antibacterial
- inhibition at 100 µM [2]: 86 ± 12%
- inhibition of growth at 100 µM ([3]; 100 μM): 80 ± 1%

SMILES: O=C(OCC(Cl)(Cl)Cl)Oc1c(Br)cc(Br)c2nc3ccccc3nc12 [Compound 27a]
- MIC [1, 4]: 0.78 to 1.56 µM
- MIC [1, 5]: 0.78 µM
- Phenotype [2]: antibacterial
- inhibition at 100 µM [2]: 99 ± 1%
- inhibition of growth at 100 µM ([3]; 100 μM): 68 ± 4%

SMILES: COC(=O)Oc1c(Br)cc(Br)c2nc3ccccc3nc12 [Compound 28a]
- MIC [1, 4]: 0.78 to 1.56 µM
- MIC [1, 5]: 1.56 µM
- Phenotype [2]: antibacterial
- inhibition at 100 µM [2]: 99 ± 1%
- inhibition of growth at 100 µM ([3]; 100 μM): 92 ± 1%

— patent US9856225B2, “Substituted phenazines as antimicrobial agents” (University of Florida Research Foundation, Incorporated, priority 2013, dated 2018)
